Experimental data: paper PMC10986598, “Investigating inhibitors of 1-deoxy-D-xylulose 5-phosphate synthase in a mouse model of UTI” (Microbiology Spectrum, 2024)
“Also recorded” adds a separate entry of the source. Like-named read-outs stand apart in the source and are kept apart here.

What was measured:
[1] = tested on: UPEC strain CFT073; assay: In vivo ascending UTI assay (prophylaxis); set-up: species or system Escherichia coli in C3H/HeN mice; conditions: for median log reduction of bacterial burden vs PBS-treated cohort: bladder, 48 h
Experimental: Female mice were injected subcutaneously in the flank with 2.5 mg of MPA (150 mg/mL, diluted in sterile saline) 7 days prior to inoculation ([60]). Mice were dosed vaginally with 30 µL of sterile saline lavage fluid immediately prior to inoculation. The fluid was collected, placed on a slide, heat fixed, Gram stained, and assessed to determine the estrous cycle stage of each mouse as previously described ([61]).
Six-week-old female C3H/HeN mice were inoculated with UPEC as previously described ([28]). Briefly, UPEC strain CFT073 (ATCC designation: BAA-2503) was streaked on LB agar from a frozen glycerol stock and grown overnight at 37°C. Following overnight incubation, three to five colonies were picked and subcultured into 10 mL of sterile LB, and the culture was incubated statically overnight at 37°C. The culture was diluted 1:1,000 (25 µL of culture into 25 mL of sterile LB) and incubated statically for 24 h at 37°C to promote the growth of bacteria with type-1 pili expression. The resulting 25 mL inoculum was centrifuged at 4,200 × g for 20 min at 4°C. The supernatant was removed, and the cell pellet was resuspended in 10 mL of sterile PBS. The OD600 was adjusted to 1.0 by the addition of PBS to give a cell density of approximately 4 × 10^7 to 1 × 10^8 CFUs per 50 µL, the volume of the inoculum. Cell counts were validated by plating a dilution of the inoculum solution and enumerating following overnight incubation.
Urinary catheters were assembled by threading 30G needles with 0.28 mm inner diameter polyethylene tubing to create a soft tip. Catheter tips were dipped in lubricant immediately before inoculation. During catheterization, urine was aspirated from the bladder prior to inoculation with 50 µL of UPEC inoculum, prepared as described above. Mice were housed with their drug-dosed cohort and dosed intraperitoneally according to each experiment’s dosing regimen as shown in the figures. Dosing regimen for BAP trial 1 (Fig. 7b)consisted of IP administration of BAP (300 mg/kg) 30 min before inoculation; dosing regimen for BAP trial 2 (Fig. 7c) consisted of IP administration of BAP (600 mg/kg) 30 min before inoculation followed with IP doses of BAP (300 mg/kg) at 1 and 3 hpi; dosing regimen for BAP trial 3 and the pro-hpAP trial (Fig. 7d) consisted of IP administration of BAP (600 mg/kg) or pro-hpAP (60 mg/kg) 30 min before inoculation followed with IP doses of BAP (300 mg/kg) or pro-hpAP (30 mg/kg) at 1, 3, and 24 hpi; dosing regimen 4 (Fig. S3) consisted of IP administration of BAP (600 mg/kg) 30 min before inoculation followed with IP doses of BAP (300 mg/kg) at 1, 3, 6, 10, 22, 26, and 30 hpi. Gentamicin diluted in sterile PBS was used as a positive control and was administered to mice at 10 mg/kg IP 30 min prior to inoculation in all experiments.
After 48 h, mice were anesthetized by isoflurane inhalation and sacrificed by cervical dislocation. Bladders were harvested, added to 1 mL sterile PBS, and homogenized with a hand-held homogenizer in a biosafety cabinet. Tissue homogenates were serially-diluted (five 10-fold dilutions), and 100 µL of each dilution was plated onto LB plates and enumerated after a 24 h incubation at 37°C, yielding an effective detection range of 1 × 10^2–150 × 10^8 CFU/mL. In a few cases, bacterial counts fell below the lower limit of detection or above the upper limit of detection and are reported as 0 CFU/mL or conservatively 200 × 10^8 CFU/mL, respectively.

[2] = In vivo PK studies in CD-1 mice
Experimental: For pharmacokinetic analysis, both male (n = 2) and female (n = 2) CD1 mice were dosed with either BAP or pro-hpAP by intraperitoneal (IP) route or administration (100 mg/kg) and (30 mg/kg), respectively. Blood and tissue samples were collected at predetermined time points (0–6 h post-dose). Plasma was generated from blood by low-speed centrifugation (3,000 × g), and all samples were stored at −80°C until bioanalysis.
Non-compartmental-analysis module in WinNonlin was used to assess blood pharmacokinetic parameters including max concentrations (Cmax), time to Cmax (Tmax), area under the curve (AUC), area extrapolated to infinity (AUC0–∞), and terminal half-life (t1/2). In addition, the tissue penetration index was measured as the ratio of AUCtissue to AUCplasma.
To quantify BAP and pro-hpAP, methanol containing 0.5 µM losartan as an internal standard was added 5 µL/µL plasma or 5 µL/mg tissue in microcentrifuge tubes. Tissue was further homogenized using a Spex Geno/Grinder with stainless steel beads for 3 min at 1,500 RPM. Homogenates from untreated animals were spiked with the analytes from 100 to 0.01 nmol/g tissue by serial dilution to generate a standard curve. Plasma and tissue homogenates were then vortexed and centrifuged (16,000 × g for 5 min at 4°C) to precipitate proteins. Supernatants were transferred to a 96 well plate and 2 µL was injected on a Accela 1250 LC coupled to a Vantage triple quadrupole mass spectrometer (Thermo Fisher Scientific Inc., Waltham MA). Samples were separated on an Agilent EclipsePlus C18 RRHD (1.8 µm) 2.1 × 100 mm column with mobile phases consisting of water +0.1% formic acid (A), and acetonitrile + 0.1% formic acid (B). […] Samples were introduced to the source through heated ion spray with the capillary temperature setting at 350°C, spray voltage of 4 kV and S-Lens RF of 51. Nitrogen was used as the sheath and auxiliary gas with the settings of 50 and 1 arbitrary units, respectively. For BAP, the instrument was operated in negative ion mode scanning for transitions of 179.1 > 63.1, 79.1 (BAP) and 420.9 > 179.1, 127.0 (losartan) which were acquired with collision energies setting of 17; 55 and 25; 41 CE, respectively. For pro-hpAP, the instrument was operated in positive ion mode scanning for transitions of 346.2 to 86.1 and 143.2 (pro-hpAP) and 422.9 to 207.1 and 180.1 (losartan) which were acquired with collision energies setting of 29; 17 and 37; 22 CE, respectively. Peaks were quantified with Xcalibur software.

[3] = Bladder, single 100 mg/kg IP dose of BAP
[4] = Brain, single 100 mg/kg IP dose of BAP
[5] = Kidney, single 100 mg/kg IP dose of BAP
[6] = Plasma, single 100 mg/kg IP dose of BAP

**Q.** With `CCCCOP(=O)(O)C(C)=O` [BAP, butyl acetylphosphonate] as the compound, how does the “protection against UTI” value ([1]; BAP single 300 mg/kg IP dose 30 min prior to inoculation, 300 mg/kg) read?
**A.** not adequate to provide protection against UPEC infection; also recorded: provides no protection against UTI

**Q.** And the “median log reduction of bacterial burden vs PBS-treated cohort” value (shortened to “median log reduction of bacterial burden”) ([1]; BAP trial 1: 300 mg/kg IP 30 min before inoculation (1 dose))?
**A.** no reduction

**Q.** And the “median log reduction of bacterial burden” value ([1]; BAP trial 2: 600 mg/kg IP 30 min before inoculation, 300 mg/kg at 1 and 3 hpi (3 doses))?
**A.** 1.05 log

**Q.** What about the “median log reduction of bacterial burden” value ([1]; BAP trial 3: 600 mg/kg IP 30 min before inoculation, 300 mg/kg at 1, 3 and 24 hpi (4 doses)) of the same compound?
**A.** 1.14 log

**Q.** And the “log reduction of bacterial burden vs PBS control” value ([1]; regimen 4: BAP 600 mg/kg IP 30 min before inoculation, 300 mg/kg at 1, 3, 6, 10, 22, 26 and 30 hpi)?
**A.** 1.32 log

**Q.** And the AUC(0-t) [2, 3]?
**A.** 1990 ± 110 µM·h

**Q.** What about the Cmax [2, 3] of the same compound?
**A.** 1840 ± 230 µM

**Q.** And the Tmax [2, 3]?
**A.** 4.8 min

**Q.** What about the AUC(0-t) [2, 4] of the same compound?
**A.** 12.5 ± 1.8 µM·h

**Q.** What about the Cmax [2, 4] of the same compound?
**A.** 16.2 ± 2.6 µM

**Q.** And the AUC(0-t) [2, 5]?
**A.** 136 ± 7 µM·h

**Q.** And the Cmax [2, 5]?
**A.** 298 ± 37 µM

**Q.** What about the Tmax [2, 5] of the same compound?
**A.** 4.8 min

**Q.** What about the AUC(0-t) [2, 6] of the same compound?
**A.** 233 ± 27 µM·h

**Q.** And the Cmax [2, 6]?
**A.** 650 ± 190 µM

**Q.** And the Tmax [2, 6]?
**A.** 4.8 min

**Q.** What about the AUC ([2]; bladder, BAP 100 mg/kg IP) of the same compound?
**A.** 1,990 ± 110 nmol h/g

**Q.** And the AUC ([2]; brain, BAP 100 mg/kg IP)?
**A.** 12.5 ± 1.8 nmol·h/g

**Q.** And the AUC ([2]; kidney, BAP 100 mg/kg IP)?
**A.** 136 ± 7 nmol·h/g

**Q.** What about the AUC ([2]; plasma, BAP 100 mg/kg IP) of the same compound?
**A.** 233 ± 27 nmol·h/mL

**Q.** Which “median log reduction of bacterial burden” value ([1]; pro-hpAP 60 mg/kg IP 30 min before inoculation, 30 mg/kg at 1, 3 and 24 hpi (4 doses)) does the source give for `C#CCCOP(=O)(O)C(=C)NC(=O)C(CC(C)C)NC(=O)CN` (stereo not shown) [pro-hpAP] here?
**A.** 1.42 log

**Q.** And the AUC ([2]; bladder, pro-hpAP 30 mg/kg IP, analyte = labelled substance (pro-hpAP or released hpAP))?
**A.** 6.2 ± 1.3 nmol·h/g

**Q.** And the Cmax ([2]; both sexes, CD1, mouse, Bladder, single 30 mg/kg IP dose of pro-hpAP, analyte = labelled substance)?
**A.** 24.3 ± 8.5 µM

**Q.** And the AUC(0-t) ([2]; both sexes, CD1, mouse, Bladder, single 30 mg/kg IP dose of pro-hpAP, analyte = labelled substance, read-out: AUC0-t)?
**A.** 6.2 ± 1.3 µM·h

**Q.** What about the Tmax ([2]; both sexes, CD1, mouse, Bladder, single 30 mg/kg IP dose of pro-hpAP, analyte = labelled substance, read-out: Tmax) of the same compound?
**A.** 4.8 min

**Q.** What about the Cmax ([2]; both sexes, CD1, mouse, Brain, single 30 mg/kg IP dose of pro-hpAP, analyte = labelled substance) of the same compound?
**A.** 0.134 ± 0.036 µM

**Q.** And the AUC(0-t) ([2]; both sexes, CD1, mouse, Brain, single 30 mg/kg IP dose of pro-hpAP, analyte = labelled substance, read-out: AUC0-t)?
**A.** 0.115 ± 0.014 µM·h

**Q.** What about the Tmax ([2]; both sexes, CD1, mouse, Brain, single 30 mg/kg IP dose of pro-hpAP, analyte = labelled substance, read-out: Tmax) of the same compound?
**A.** 4.8 min

**Q.** And the Cmax ([2]; both sexes, CD1, mouse, Kidney, single 30 mg/kg IP dose of pro-hpAP, analyte = labelled substance)?
**A.** 0.715 ± 0.09 µM

**Q.** And the AUC(0-t) ([2]; both sexes, CD1, mouse, Kidney, single 30 mg/kg IP dose of pro-hpAP, analyte = labelled substance, read-out: AUC0-t)?
**A.** 0.516 ± 0.048 µM·h

**Q.** What about the Tmax ([2]; both sexes, CD1, mouse, Kidney, single 30 mg/kg IP dose of pro-hpAP, analyte = labelled substance, read-out: Tmax) of the same compound?
**A.** 4.8 min

**Q.** What about the Cmax ([2]; both sexes, CD1, mouse, Plasma, single 30 mg/kg IP dose of pro-hpAP, analyte = labelled substance (pro-hpAP or released hpAP)) of the same compound?
**A.** 20.2 ± 1.9 µM

**Q.** What about the AUC(0-t) ([2]; both sexes, CD1, mouse, Plasma, single 30 mg/kg IP dose of pro-hpAP, analyte = labelled substance, read-out: AUC0-t) of the same compound?
**A.** 3.2 ± 0.21 µM·h

**Q.** What about the Tmax ([2]; both sexes, CD1, mouse, Plasma, single 30 mg/kg IP dose of pro-hpAP, analyte = labelled substance, read-out: Tmax) of the same compound?
**A.** 4.8 min

**Q.** What about the AUC ([2]; both sexes, CD1, mouse, plasma, pro-hpAP 30 mg/kg IP, analyte = labelled substance, read-out: AUC) of the same compound?
**A.** 3.2 ± 0.21 nmol·h/mL

**Q.** What about the AUC ([2]; brain, pro-hpAP 30 mg/kg IP, analyte = labelled substance) of the same compound?
**A.** 0.115 ± 0.014 nmol·h/g

**Q.** What about the AUC ([2]; kidney, pro-hpAP 30 mg/kg IP, analyte = labelled substance) of the same compound?
**A.** 0.516 ± 0.048 nmol·h/g
